Experimental data published in patent publication US20260240761A1, “ORAL FILM UNIT DOSAGE FORM” (SWIPP AB, priority 2023, published 2026).
Counter-ions that a name gives are not always drawn.

Tests used:
[1] = XRPD of sedimented material from the solvent screening; assay type: physicochemical; settings: solvent evaporated at ambient temperature
Experimental: Test tubes prepared with ethanol and ethyl acetate, respectively, corresponding to the last step in Example 14, were prepared and allowed to sediment overnight. The solvents in each sample of sedimented material were slowly evaporated off at ambient temperature and atmospheric pressure. It was then subjected to the XRPD method described in Example 12 except that only steps 1-2 of that method were performed, and that the reference “API raw material” recorded in step 1 was midazolam hydrochloride and not midazolam base.

[2] = Solvent screening: solubility of midazolam hydrochloride in process solvents; assay type: physicochemical
Experimental: For each solvent, four test tubes were prepared, containing about 1 g solvent and midazolam hydrochloride at amounts of about 0.1 wt %, 1 wt %, 4 wt % and 7 wt %, respectively. The tubes were thoroughly mixed and were then visually observed and photographed. After 15 minutes of resting, they were again visually observed and photographed, and were then mixed again. After another 1 hour, they were finally visually observed and photographed. It was noted whether there were any undissolved solid material remaining, approximately how much, and whether it had sedimented at the bottom or formed a whitish suspension, and if that suspension was translucent or opaque. No analytical method, e.g., HPLC Assay, was used to actually quantify the precise solubilities because the main aim was just to determine whether the midazolam hydrochloride was predominately dissolved or solid, at 4 wt % and 7 wt % respectively, which represent typical levels for the midazolam hydrochloride content in a wet mix. If midazolam hydrochloride was predominately […] at 7 wt %, the solvent was deemed to be potentially very feasible.

In the case of `Cc1ncc2n1-c1ccc(Cl)cc1C(c1ccccc1F)=NC2` [midazolam hydrochloride], the “XRPD identity of sedimented material” value ([1]; sediment from ethanol) is reported as “a solid crystalline material that was not midazolam hydrochloride”, the “XRPD identity of sedimented material” value ([1]; sediment from ethyl acetate) is reported as “appeared to be identical to midazolam hydrochloride” and the “Visual appearance at last observation” value ([2]; 1-pentanol, 0.1 wt %) is reported as “clear”. For the same compound, the “Visual appearance at last observation” value ([2]; 1-pentanol, 1 wt %) was “translucent”, the “Visual appearance at last observation” value ([2]; 1-pentanol, 4 wt %) was “opaque” and the “Visual appearance at last observation” value ([2]; 1-pentanol, 7 wt %) was “opaque”. For the same compound, the “Visual appearance at last observation” value ([2]; 2-propanol, 0.1 wt %) was “clear”, the “Visual appearance at last observation” value ([2]; 2-propanol, 1 wt %) was “translucent” and the “Visual appearance at last observation” value ([2]; 2-propanol, 4 wt %) was “opaque”. For the same compound, the “Visual appearance at last observation” value ([2]; 2-propanol, 7 wt %) was “opaque”, the “Visual appearance at last observation” value ([2]; acetone, 0.1, 1, 4 and 7 wt %) was “clear supernatant over sedimented” and the “Visual appearance at last observation” value ([2]; ethanol, 0.1 wt %) was “clear”. For the same compound, the “Visual appearance at last observation” value ([2]; ethanol, 1 wt %) was “clear”, the “Visual appearance at last observation” value ([2]; ethanol, 4 wt %) was “opaque” and the “Visual appearance at last observation” value ([2]; ethanol, 7 wt %) was “opaque”. The “Visual appearance at last observation” value ([2]; ethyl acetate, 0.1 wt %) was “cloudy”, the “Visual appearance at last observation” value ([2]; ethyl acetate, 1 wt %) was “opaque” and the “Visual appearance at last observation” value ([2]; ethyl acetate, 4 wt %) was “opaque”. The “Visual appearance at last observation” value ([2]; ethyl acetate, 7 wt %) was “opaque”, the “Solubility (tentative interpretation)” value ([2]; in 1-pentanol) was “Solubility is between 0.1-1 wt %” and the “Solubility (tentative interpretation)” value ([2]; in 2-propanol) was “Solubility is between 0.1-1 wt %”. For the same compound, the “Solubility (tentative interpretation)” value ([2]; in acetone) was “Solubility is ≤0.1 wt %. Solvent”, the “Solubility (tentative interpretation)” value ([2]; in ethanol) was “Solubility is between 1-4 wt %” and the “Solubility (tentative interpretation)” value ([2]; in ethyl acetate) was “Solubility is ≤0.1 wt %. Solvent”. The “Solubility (tentative interpretation)” value ([2]; in isobutyl acetate) was “Solubility is ≤0.1 wt %. Solvent”, the “Solubility (tentative interpretation)” value ([2]; in methyl acetate) was “Solubility is ≤0.1 wt %. Solvent” and the “Visual appearance at last observation” value ([2]; isobutyl acetate, 0.1 wt %) was “cloudy”. The “Visual appearance at last observation” value ([2]; isobutyl acetate, 1 wt %) was “opaque”, the “Visual appearance at last observation” value ([2]; isobutyl acetate, 4 wt %) was “opaque” and the “Visual appearance at last observation” value ([2]; isobutyl acetate, 7 wt %) was “opaque”. The “Visual appearance at last observation” value ([2]; methyl acetate, 0.1 wt %) was “cloudy”, the “Visual appearance at last observation” value ([2]; methyl acetate, 1 wt %) was “opaque” and the “Visual appearance at last observation” value ([2]; methyl acetate, 4 wt %) was “opaque”. The “Visual appearance at last observation” value ([2]; methyl acetate, 7 wt %) was “opaque”.
